T1: RNase A (Bos taurus, UniProt P61823)
T1 sequence (P61823 27-150): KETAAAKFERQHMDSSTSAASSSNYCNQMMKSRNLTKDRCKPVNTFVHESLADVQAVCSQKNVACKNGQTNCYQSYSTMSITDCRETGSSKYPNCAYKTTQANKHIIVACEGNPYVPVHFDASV


Key:
[1] = biological target: T1, RNase A; test: Glycan array screening for RNase A ligands; assay type: binding, cow; settings: printed glycan array, Figure 1
[2] = test system: human leukemia cells; settings: read-out: IC50 (cytotoxicity), ref [6],[15]; cited from earlier work

Molecule	binding of RNase A to glycan in the array (in words) [1]	IC50 [2]
CC(=O)NC1C(OC2C(O)C(CO)OC(OC3C(CO)OC(OC4C(CO)OC(O)C(O)C4O)C(O)C3O)C2O)OC(CO)C(O)C1OC1OC(CO)C(O)C(O)C1O (stereo not shown) [glycan 127, Galβ1–3GalNAcβ1–3Galα1–4Galβ1–4Glc]	little affinity	–
GalNAcβ1–3Galα1–4Galβ1–4GlcNAc [glycan 90]	did bind	–
DRRRD RNase 1: RI-evasive cytotoxic variant of RNase 1 (R39D/N67R/N88R/G89R/R91D) (protein, UniProt P07998 29-156, looked up, variant R39D N67R N88R G89R R91D) Ribonuclease pancreatic: KESRAKKFQRQHMDSDSSPSSSSTYCNQMMRRRNMTQGDCKPVNTFVHEPLVDVQNVCFQEKVTCKRGQGNCYKSNSSMHITDCRLTRRSDYPNCAYRTSPKERHIIVACEGSPYVPVHFDASVEDST	–	10.8 µM
RNase A (G88R): RI-evasive cytotoxic G88R variant of RNase A (protein, UniProt P61823 27-150, looked up, variant G88R) Ribonuclease pancreatic: KETAAAKFERQHMDSSTSAASSSNYCNQMMKSRNLTKDRCKPVNTFVHESLADVQAVCSQKNVACKNGQTNCYQSYSTMSITDCRETRSSKYPNCAYKTTQANKHIIVACEGNPYVPVHFDASV	–	6.2 µM
